Laboratory results reported in patent US20260347372A1, “SMALL MOLECULE INHIBITORS OF KRAS G12D MUTANT” (MERCK SHARP & DOHME LLC, priority 2023, published 2026).

Assays:
KRAS G12D = KRAS G12D (Homo sapiens, UniProt P01116, G12D); test: SOS-catalyzed nucleotide exchange assay, KRAS G12D (Procedure A); format: biochemical; details: guanine nucleotide exchange (GNE)
In short: (§1)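 Preformed TR-FRET complex of biotinylated KRAS (G12C carries C51S/C80L/C118S; others native sequence), Bodipy-GDP and Tb-streptavidin preincubated with compound 60 min at room temperature. Exchange started with human SOS plus 3 mM GTP for 60 min (G13D 30 min). Final RAS/SOS: G12C 3/40 nM; WT, G12D 1/40 nM; G13D 1.25/0 nM. 520/495 nm ratio normalised, fitted to four-parameter logistic.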

KRAS WT = KRAS WT (Homo sapiens, UniProt P01116); test: SOS-catalyzed nucleotide exchange assay, KRAS WT (Procedure A); format: biochemical; details: GNE
In short: as §1

KRAS G12V = KRAS G12V (Homo sapiens, UniProt P01116, G12V); test: SOS-catalyzed nucleotide exchange assay, KRAS G12V (Procedure A); format: biochemical; details: GNE
In short: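 Biotinylated KRAS G12V was loaded with Bodipy-GDP alongside Terbium-streptavidin to form a TR-FRET complex, which was preincubated with compounds for 60 minutes in 384-well plates. Human SOS protein and unlabeled GTP were then added for 90 minutes, giving final concentrations of 1.25 nM KRAS-G12V, 160 nM SOS and 3 mM GTP. The 520/495 nm emission ratio was read on an Envision.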

AsPC-1 cells = molecular target: T1, AsPC-1 cells (Homo sapiens, UniProt P01116, G12D); test: Cellular phospho-ERK assay, AsPC-1 cells (KRAS G12D); format: cell-based; details: 2 hours, read-out: AsPC1 pERK IC50
T1 construct: p-ERK/total ERK AlphaSureFire read-out
In short: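 PANC08.13 or AsPC-1 cells (homozygous KRAS G12D) were seeded overnight, then treated for 2 h at 37 °C with a 10-point 1:3 titration from 30 μM. Lysates were assayed by AlphaLISA SureFire for p-ERK and total ERK. IC50 came from a 4-parameter fit of the p-ERK/total ERK ratio.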

T1 sequence (P01116 1-188 isoform P01116-2 G12D): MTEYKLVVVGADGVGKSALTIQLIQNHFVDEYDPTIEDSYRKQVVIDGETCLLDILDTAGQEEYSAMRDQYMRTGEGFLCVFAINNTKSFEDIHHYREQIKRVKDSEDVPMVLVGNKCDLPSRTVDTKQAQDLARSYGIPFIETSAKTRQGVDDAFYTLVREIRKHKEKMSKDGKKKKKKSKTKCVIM
Chain of KRAS WT (P01116 with tags, fused parts or gaps isoform P01116-2): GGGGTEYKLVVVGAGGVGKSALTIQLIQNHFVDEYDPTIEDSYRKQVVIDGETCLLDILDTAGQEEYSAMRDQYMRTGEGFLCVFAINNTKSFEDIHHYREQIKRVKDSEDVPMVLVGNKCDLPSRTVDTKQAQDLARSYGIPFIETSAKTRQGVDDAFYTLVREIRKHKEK
Chain of KRAS G12V (P01116 with tags, fused parts or gaps isoform P01116-2 G12V): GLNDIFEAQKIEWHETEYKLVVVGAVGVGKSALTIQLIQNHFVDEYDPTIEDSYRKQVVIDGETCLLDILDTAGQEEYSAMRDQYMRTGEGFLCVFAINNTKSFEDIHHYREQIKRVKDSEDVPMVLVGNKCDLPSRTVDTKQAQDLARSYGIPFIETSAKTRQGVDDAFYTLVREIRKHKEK
Chain of KRAS G12D (P01116 with tags, fused parts or gaps isoform P01116-2 G12D): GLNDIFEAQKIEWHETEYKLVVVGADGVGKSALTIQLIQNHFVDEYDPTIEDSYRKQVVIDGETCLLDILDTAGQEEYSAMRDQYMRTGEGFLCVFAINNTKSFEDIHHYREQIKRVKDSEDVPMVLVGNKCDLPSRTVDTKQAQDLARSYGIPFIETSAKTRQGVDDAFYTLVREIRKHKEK

Compound	IC50 (KRAS G12D) [nM]	IC50 (KRAS WT) [nM]	IC50 (KRAS G12V) [nM]	IC50 (AsPC-1 cells) [nM]
Fc1ccc2cc3[nH]ncc3c(-c3nccc4c3sc3nc(OC[C@@]56CCCN5C[C@H](F)C6)nc(N5C[C@H]6CC[C@@H](C5)N6)c34)c2c1 [Ex-57, 4-((1R,5S)-3,8-diazabicyclo[3.2.1]octan-3-yl)-8-(6-fluoro-1H-benzo[f]indazol-4-yl)-2-(((2R,7aS)-2-fluorotetrahydro-1H-pyrrolizin-7a(5H)-yl)methoxy)pyri-do[4′,3′:4,5] thieno[2,3-d]pyrimidine]	23.6	2890	2090	299
COC1(COc2nc(N3C[C@H]4CC[C@@H](C3)N4)c3c(n2)sc2c(-c4c(C(F)(F)F)c(C)cc5[nH]ncc45)nccc23)CC1 [Ex-26, 4-((1R,5S)-3,8-diazabicyclo[3.2.1]octan-3-yl)-2-((1-methoxycyclopropyl)methoxy)-8-(6-methyl-5-(trifluoromethyl)-1H-indazol-4-yl)pyrido[4′,3′:4,5]thieno[2,3-d]pyrimidine]	3200	> 11100	> 11100	> 30000
Cc1cc2[nH]ncc2c(-c2nccc3c2sc2nc(OC[C@@]45CCCN4C[C@H](F)C5)nc(N4C[C@H]5CC[C@@H](C4)N5CC(C)O)c23)c1C(F)(F)F (stereo partly drawn) [Ex-113, 1-((1R,5S)-3-(2-(((2R,7aS)-2-fluorotetrahydro-1H-pyrrolizin-7a(5H)-yl)methoxy)-8-(6-methyl-5-(trifluoromethyl)-1H-indazol-4-yl)pyrido[4′,3′:4,5]thieno[2,3-d]pyrimidin-4-yl)-3,8-diazabicyclo[3.2.1]octan-8-yl)propan-2-ol]	492	1110	1850	2380
C#Cc1c(F)ccc2cc3[nH]ncc3c(-c3nccc4c3sc3nc(OC[C@]5(CN6CCC7(CC6)CC(Cc6cn(C)nn6)C7)CC5(F)F)nc(N5C[C@H]6CC[C@@H](C5)N6)c34)c12 [Ex-106, 4-((1R,5S)-3,8-diazabicyclo[3.2.1]octan-3-yl)-2-(((R)-2,2-difluoro-1-((2-((1-methyl-1H-1,2,3-triazol-4-yl)methyl)-7-azaspiro[3.5]nonan-7-yl)methyl)cyclopropyl)methoxy)-8-(5-ethynyl-6-fluoro-1H-benzo[f]indazol-4-yl)pyrido[4′,3′:4,5]thie-no[2,3-d]pyrimidine]	2.03	877	1700	74
F[C@H]1CN2CCC[C@@]2(COc2nc(N3C[C@H]4CC[C@@H](C3)N4)c3c(n2)sc2c(-c4c5cn[nH]c5cc5cccc(Cl)c45)nccc23)C1 [Ex-58, 4-((1R,5S)-3,8-diazabicyclo[3.2.1]octan-3-yl)-8-(5-chloro-1H-benzo[/]indazol-4-yl)-2-(((2R,7aS)-2-fluorotetrahydro-1H-pyrrolizin-7a(5H)-yl)methoxy)pyrido[4′,3′:4,5]thieno[2,3-d]pyrimidine]	9.3	1830	2560	447
C#Cc1c(F)ccc2cc3[nH]ncc3c(-c3nccc4c3sc3nc(OCC5(C(=O)NC)CC5)nc(N5C[C@H]6CC[C@@H](C5)N6)c34)c12 [Ex-91, 1-(((4-((1R,5S)-3,8-diazabicyclo[3.2.1]octan-3-yl)-8-(5-ethynyl-6-fluoro-1H-benzo[f]indazol-4-yl)pyrido[4′,3′:4,5]thie-no[2,3-d]pyrimidin-2-yl)oxy)methyl)-N-methylcyclopropane-1-carboxamide]	50.6	> 11100	> 11100	5030
C#Cc1c(F)ccc2cc3[nH]ncc3c(-c3nccc4c3sc3nc(OCC5(C#N)CCOCC5)nc(N5C[C@H]6CC[C@@H](C5)N6)c34)c12 [Ex-90, 4-(((4-((1R,5S)-3,8-diazabicyclo[3.2.1]octan-3-yl)-8-(5-ethynyl-6-fluoro-1H-benzo[f]indazol-4-yl)pyrido[4′,3′:4,5]thie-no[2,3-d]pyrimidin-2-yl)oxy)methyl)tetrahy-dro-2H-pyran-4-carbonitrile]	187	> 11100	> 11100	3310
C#Cc1c(F)ccc2cc3[nH]ncc3c(-c3nccc4c3sc3nc(OC[C@]5(CN6CCN(CC(F)(F)F)CC6)CC5(F)F)nc(N5C[C@H]6CC[C@@H](C5)N6)c34)c12 [Ex-101, 4-((1R,5S)-3,8-diazabicyclo[3.2.1]octan-3-yl)-2-(((R)-2,2-difluoro-1-((4-(2,2,2-trifluoroethyl)piperazin-1-yl)methyl)cyclopropyl)methoxy)-8-(5-ethynyl-6-fluoro-1H-benzo[f]indazol-4-yl)pyrido[4′,3′:4,5]thie-no[2,3-d]pyrimidine]	33.1	> 11100	> 11100	1210
C#Cc1c(F)ccc2cc3[nH]ncc3c(-c3nccc4c3sc3nc(OC[C@]5(CN6CC[C@@H](F)C6)CC5(F)F)nc(N5C[C@H]6CC[C@@H](C5)N6)c34)c12 [Ex-103, 4-((1R,5S)-3,8-diazabicyclo[3.2.1]octan-3-yl)-2-(((R)-2,2-difluoro-1-(((R)-3-fluoropyrrolidin-1-yl)methyl)cyclopropyl)methoxy)-8-(5-ethynyl-6-fluoro-1H-benzo[f]indazol-4-yl)pyrido[4′,3′:4,5]thie-no[2,3-d]pyrimidine]	2	2360	9280	296
C#Cc1c(F)ccc2cc3[nH]ncc3c(-c3nccc4c3sc3nc(OC[C@@]56CCCN5C[C@H](F)C6)nc(N5C[C@H]6CC[C@@H](C5)N6CCCC#N)c34)c12 [Ex-88, 4-((1R,5S)-3-(8-(5-ethynyl-6-fluoro-1H-benzo[f]indazol-4-yl)-2-(((2R,7aS)-2-fluorotetrahydro-1H-pyrrolizin-7a(5H)-yl)methoxy)pyrido[4′,3′:4,5]thieno[2,3-d]pyrimidin-4-yl)-3,8-diazabicyclo[3.2.1]octan-8-yl)butanenitrile]	100	743	1780	368
C#Cc1c(F)ccc2cc3[nH]ncc3c(-c3nccc4c3sc3nc(OC[C@]5(CN6CCN(C(C)=O)CC6)CC5(F)F)nc(N5C[C@H]6CC[C@@H](C5)N6)c34)c12 [Ex-102, 1-(4-(((1R)-1-(((4-((1R,5S)-3,8-diazabicyclo[3.2.1]octan-3-yl)-8-(5-ethynyl-6-fluoro-1H-benzo[f]indazol-4-yl)pyrido [4′,3′:4,5]thie-no[2,3-d]pyrimidin-2-yl)oxy)methyl)-2,2-difluorocyclopropyl)meth-yl)piperazin-1-yl)ethan-1-one]	12.3	> 11100	> 11100	2770
C#Cc1c(F)ccc2cc3[nH]ncc3c(-c3nccc4c3sc3nc(OCC56CCCC5N(C)CCC6)nc(N5C[C@H]6CC[C@@H](C5)N6)c34)c12 (stereo partly drawn) [Ex-92, 4-((1R,5S)-3,8-diazabicyclo[3.2.1]octan-3-yl)-8-(5-ethynyl-6-fluoro-1H-benzo[f]indazol-4-yl)-2-((1-methyloctahydro-4aH-cyclopenta[b]pyridin-4a-yl)methoxy)pyrido[4′, 3′:4,5]thieno[2,3-d]pyrimidine]	1.99	57.4	88.2	18.1
F[C@H]1CN2CCC[C@@]2(COc2nc(N3C[C@H]4CC[C@@H](C3)N4)c3c(n2)C2(CC2)c2c-3ccnc2-c2c(C3CC3)c(Cl)cc3[nH]ncc23)C1 (single isomer, unassigned) [Ex-115]	9	2050	2120	523
Cc1cc2[nH]ncc2c(-c2nccc3c2sc2nc(OCC45COC(CF)(C4)C5)nc(N4C[C@H]5CC[C@@H](C4)N5)c23)c1C(F)(F)F [Ex-28, 4-((1R,5S)-3,8-diazabicyclo[3.2.1]octan-3-yl)-2-((1-(fluoromethyl)-2-oxabicyclo[2.1.1]hexan-4-yl)methoxy)-8-(6-methy1-5-(trifluoromethyl)-1H-indazol-4-yl)pyrido[4′,3′:4,5]thieno[2,3-d]pyrimidine]	3340	> 11100	> 11100	> 30000
C#Cc1c(F)ccc2cc3[nH]ncc3c(-c3nccc4c3sc3nc(OC[C@]5(CN6CC7(CC(F)C7)C6)CC5(F)F)nc(N5C[C@H]6CC[C@@H](C5)N6)c34)c12 [Ex-99, 4-((1R,5S)-3,8-diazabicyclo[3.2.1]octan-3-yl)-2-(((R)-2,2-difluoro-1-((6-fluoro-2-azaspiro[3.3]heptan-2-yl)methyl)cyclopropyl)methoxy)-8-(5-ethynyl-6-fluoro-1H-benzo[f]indazol-4-yl)pyrido[4′,3′:4,5]thie-no[2,3-d]pyrimidine]	1.53	1080	2740	59.9
C#Cc1c(F)ccc2cc3[nH]ncc3c(-c3nccc4c3sc3nc(OC[C@]5(CN6CCC6)CC5(F)F)nc(N5C[C@H]6CC[C@@H](C5)N6)c34)c12 [Ex-107, 2-(((R)-1-(azetidin-1-ylmethyl)-2,2-difluorocyclopropyl)meth-oxy)-4-((1R,5S)-3,8-diazabicyclo[3.2.1]octan-3-yl)-8-(5-ethynyl-6-fluoro-1H-benzo[f]indazol-4-yl)pyrido[4′,3′:4,5]thie-no[2,3-d]pyrimidine]	3.23	800	1030	51.8
